Source: PubChem BioAssay AID1963971 (Molecular Pharmacology Branch, DTP, NCI, 2024)
Where “and” joins values, the source holds several entries; their conditions need not be identical. Identical values can stand only once.

Test system: 953936-095-R-J2-PDC spheroids with HUVEC/MSC, viability
Assay: Anticancer human tumor 953936-095-R-J2-PDC patient-derived cervical squamous cell carcinoma cell line growth inhibition [PI3K]
Settings: for viability, T/C: stronger effect = lower value
Description: Combinatorial screen of targeted agents with the PI3K inhibitors inavolisib, alpelisib, duvelisib, and copanlisib in multi-cell type tumor spheroids
A high-throughput screen of multi-cell type tumor spheroids was designed to identify active combinations of targeted small molecules and PI3K pathway inhibitors. Complex spheroids include a stromal component modeled by human endothelial cells (HUVEC) and fibroblasts modeled by human mesenchymal stem cells (MSCs). The concentration ranges selected for each drug and investigational agent were based upon clinically achievable concentrations if the clinical Cmax of the agent was known.
Compounds. The drugs and investigational agents: inavolisib (NSC800729), alpelisib (NSC765974), duvelisib (NSC772469), copanlisib (NSC816437), ipatasertib (NSC767898), afuresertib (NSC778305), talazoparib (NSC767125), sapanisertib (NSC764658), selumetinib (NSC741078), tovorafenib (DAY101, NSC766906), vemurafenib (NSC761431), ravoxertinib (NSC781343), sotorasib (NSC818433), MRTX1133 (NSC 836407), abemaciclib (NSC 768073), palbociclib (NSC758247), venetoclax (NSC 766270), SY5609 (NSC837396), enzalutamide (NSC755605), and darolutamide (NSC825331), were obtained from the National Cancer Institute (NCI) Developmental Therapeutics Program Chemical Repository. The FDA-approved anticancer drug set is available from the NCI Developmental Therapeutics Program. […] The stock solutions were prepared in dimethyl sulfoxide (DMSO, Sigma-Aldrich, St. Louis, MO, cat. D2650) at 800-fold the tested concentration and stored at -70 degrees C prior to their use. All drugs and investigational agents were tested over a range starting from a high concentration at or near the clinical Cmax and decreasing in half-log increments. If the clinical Cmax for an agent had not been determined, the highest concentration tested was 10 microM.
Cell Culture. All cells were maintained in an incubator at 37 degrees C and 5% CO2 with 95% humidity. The PDC lines were cultured according to standard operating procedures established by the NCI PDMR (https://pdmr.cancer.gov/sops/default.htm). All PDCs were thawed and cultured in Matrigel-coated flasks prepared with a working solution of 1X Ham's F-12 nutrient mix, without supplementation (Invitrogen, Waltham, MA, cat. 11765054), 100 U/mL penicillin-streptomycin (Invitrogen, cat. 15140122), and 2.5% Matrigel (Corning Inc., Corning, NY, cat. 354248) for the first three passages. The 354836-022-R-J1-PDC, 475296-252-R-J1-PDC, and 997726-040-R-J2-PDC lines were cultured in 6A media, which includes advanced DMEM/F-12 (Thermo Fisher Scientific, cat. 12634028), 10 mM HEPES (Thermo Fisher Scientific, cat. 15630080), 1X GlutaMAX supplement (Thermo Fisher Scientific, cat. 35050061), 0.1 mg/mL primocin (InvivoGen, San Diego, CA, cat. ant-pm-2), 10% defined fetal bovine serum, heat inactivated (HyClone Laboratories Inc., Logan, UT, cat. SH30070.03HI), 50% L-WRN conditioned media (ATCC, cat. CRL-3276), 1.25 mM N-Acetyl-L-cysteine (Sigma-Aldrich, cat. A9165), 10 mM nicotinamide (Sigma-Aldrich, cat. N0636), 1X B-27 supplement (Thermo Fisher Scientific, cat. 17504044), 1X N-2 supplement (Thermo Fisher Scientific, cat. 17502048), and 10 microM Y-27632 dihydrochloride (Tocris Bioscience, Bristol, United Kingdom, cat. 1254). The 624824-186-R-J2-PDC line was cultured in 6C/Colon 1B media, which includes all 6A media components plus 50 ng/mL human EGF recombinant protein (Thermo Fisher Scientific, cat. PHG0311). […]

[1] = compound alone, run of 06/12/2023
[2] = compound alone, run of 06/13/2023
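Further: spheroids exposed to compounds for seven days before read-out.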

| Compound | viability, T/C (compound 0.000316 µM) | viability, T/C (compound 0.001 µM) | viability, T/C (compound 0.00316 µM) | viability, T/C (compound 0.01 µM) | viability, T/C (compound 0.0316 µM) | viability, T/C (compound 0.1 µM) | IC50 (curve of compound) | viability, T/C (compound 0.316 µM) | viability, T/C (compound 1 µM) | viability, T/C (compound 3.16 µM) | viability, T/C (compound 10 µM) | IC50 [1] | IC50 [2] | viability, T/C (compound 0.00949 µM) | viability, T/C (compound 0.03 µM) | viability, T/C (compound 0.0949 µM) | viability, T/C (compound 0.3 µM) | viability, T/C (compound 0.949 µM) | viability, T/C (compound 3 µM) |
| --- | --- | --- | --- | --- | --- | --- | --- | --- | --- | --- | --- | --- | --- | --- | --- | --- | --- | --- | --- |
| CC(=O)c1c(C)c2cnc(Nc3ccc(N4CCNCC4)cn3)nc2n(C2CCCC2)c1=O | 95.2% [middle of 4 runs] | 96.6% [middle of 4 runs] | 103% [middle of 4 runs] | 97.6% [middle of 4 runs] | 96.6% [middle of 4 runs] | 95.7% [middle of 4 runs] | > 0.1 µM | – | – | – | – | – | – | – | – | – | – | – | – |
| CC(C)NCC(C(=O)N1CCN(c2ncnc3c2C(C)CC3O)CC1)c1ccc(Cl)cc1 (stereo not given) | – | – | – | – | 92.7% [middle of 4 runs] | 91.5% [middle of 4 runs] | 1.02 µM [middle of 4 runs] | 80.4% [middle of 4 runs] | 50.5% [middle of 4 runs] | 24.3% [middle of 4 runs] | 15.2% [middle of 4 runs] | – | – | – | – | – | – | – | – |
| CC(C)n1nc(-c2ccc3oc(N)nc3c2)c2c(N)ncnc21 | 91% [middle of 4 runs] | 92.7% [middle of 4 runs] | 88.9% [middle of 4 runs] | 73.4% [middle of 4 runs] | 50.6% [middle of 4 runs] | 17.6% [middle of 4 runs] | 32.4 nM [middle of 4 runs] | – | – | – | – | – | – | – | – | – | – | – | – |
| CC(Cn1ccc(-c2ccc(C#N)c(Cl)c2)n1)NC(=O)c1cc(C(C)O)[nH]n1 (stereo not given) | – | – | – | – | 91.2% [middle of 4 runs] | 96.5% [middle of 4 runs] | > 10 µM | 97.1% [middle of 4 runs] | 108% and 101% (2×) and 96.8% | – | 99.4% (2×) and 105% and 106% | – | – | – | – | – | – | – | – |
| CC(Nc1ccc2c(c1)OCCn1cc(N3C(=O)OCC3C(F)F)nc1-2)C(N)=O (stereo not given) | – | – | 104% [middle of 8 runs] | 92.8% [middle of 8 runs] | 75.9% [middle of 8 runs] | 56.1% [middle of 8 runs] | – | 36.3% [middle of 8 runs] | 23.6% [middle of 8 runs] | – | – | 140 nM [middle of 7 runs] | – | – | – | – | – | – | – |
| CC(Nc1ncnc2nc[nH]c12)c1cc2cccc(Cl)c2c(=O)n1-c1ccccc1 (stereo not given) | – | – | – | – | 97.8% [middle of 8 runs] | 93.8% [middle of 8 runs] | – | 92.2% [middle of 8 runs] | 85.9% [middle of 8 runs] | 80% [middle of 8 runs] | 65% [middle of 8 runs] | – | > 10 µM | – | – | – | – | – | – |
| CC1(C)CCC(CN2CCN(c3ccc(C(=O)NS(=O)(=O)c4ccc(NCC5CCOCC5)c([N+](=O)[O-])c4)c(Oc4cnc5[nH]ccc5c4)c3)CC2)=C(c2ccc(Cl)cc2)C1 | – | – | – | – | 96.8% [middle of 4 runs] | 95.1% [middle of 4 runs] | 7.57 µM [middle of 4 runs] | 92.7% [middle of 4 runs] | 102% [middle of 4 runs] | – | 32.5% [middle of 4 runs] | – | – | – | – | – | – | – | – |
| CC1(C)CCC(Nc2ncc(C(F)(F)F)c(-c3c[nH]c4c(P(C)(C)=O)c(C#N)ccc34)n2)CN1 (stereo not given) | – | – | – | – | 51.7% [middle of 4 runs] | 51.8% [middle of 4 runs] | – | 53.5% [middle of 4 runs] | 53.4% [middle of 4 runs] | 55% and 54.4% (2×) and 52.7% | 7.36% [middle of 4 runs] | – | – | – | – | – | – | – | – |
| CCCS(=O)(=O)Nc1ccc(F)c(C(=O)c2c[nH]c3ncc(-c4ccc(Cl)cc4)cc23)c1F | – | – | – | – | 94.5% [middle of 4 runs] | 106% (2×) and 102% and 103% | 5.69 µM [middle of 4 runs] | 113% [middle of 4 runs] | 113% [middle of 4 runs] | 105% [middle of 4 runs] | 1.33% [middle of 4 runs] | – | – | – | – | – | – | – | – |
| CCN1CCN(Cc2ccc(Nc3ncc(F)c(-c4cc(F)c5nc(C)n(C(C)C)c5c4)n3)nc2)CC1 | – | – | 98.4% [middle of 4 runs] | 96.4% [middle of 4 runs] | 93.1% [middle of 4 runs] | 100% and 101% (2×) and 89.5% | > 1 µM | 88.2% [middle of 4 runs] | 85.2% [middle of 4 runs] | – | – | – | – | – | – | – | – | – | – |
| CNC(=O)c1ccc(N2C(=S)N(c3ccc(C#N)c(C(F)(F)F)c3)C(=O)C2(C)C)cc1F | – | – | – | – | 106% (2×) and 93.7% and 103% | 98% [middle of 4 runs] | > 10 µM | 93.5% [middle of 4 runs] | 102% (2×) and 112% and 107% | – | 88.5% [middle of 4 runs] | – | – | – | – | – | – | – | – |
| COc1c(OCCCN2CCOCC2)ccc2c3n(c(=NC(=O)c4cnc(N)nc4)nc12)CCN3 | – | – | 85% [middle of 8 runs] | 71.1% [middle of 8 runs] | 39.5% [middle of 8 runs] | 17.8% [middle of 8 runs] | – | 5.89% [middle of 8 runs] | 1.69% [middle of 7 runs] | – | – | – | 22.6 nM [middle of 6 runs] | – | – | – | – | – | – |
| C[C@@H](NC(=O)c1ncnc(N)c1Cl)c1ncc(C(=O)Nc2cc(C(F)(F)F)c(Cl)cn2)s1 | – | – | – | – | 105% (2×) and 98.5% and 118% | 104% (3×) and 103% | > 10 µM | 110% [middle of 4 runs] | 115% [middle of 4 runs] | 108% [middle of 4 runs] | 102% [middle of 4 runs] | – | – | – | – | – | – | – | – |
| Cc1nc(NC(=O)N2CCCC2C(N)=O)sc1-c1ccnc(C(C)(C)C(F)(F)F)c1 (stereo not given) | – | – | – | – | 90% [middle of 8 runs] | 80.7% [middle of 8 runs] | – | 64.2% [middle of 8 runs] | 43.8% [middle of 8 runs] | 28.4% [middle of 8 runs] | 13.6% [middle of 8 runs] | 746 nM [middle of 8 runs] | – | – | – | – | – | – | – |
| Cn1cnc2c(F)c(Nc3ccc(Br)cc3Cl)c(C(=O)NOCCO)cc21 | – | – | – | – | – | – | 1.01 µM [middle of 4 runs] | – | – | – | – | – | – | 90.5% (2×) and 83.8% and 88.8% | 81.4% [middle of 4 runs] | 72.3% [middle of 4 runs] | 66% [middle of 4 runs] | 54.8% [middle of 4 runs] | 37.9% [middle of 4 runs] |
| Cn1nccc1Nc1nccc(-c2ccn(C(CO)c3ccc(Cl)c(F)c3)c(=O)c2)n1 (stereo not given) | – | – | – | – | 90.7% [middle of 4 runs] | 97.3% [middle of 4 runs] | > 10 µM | 91.1% [middle of 4 runs] | 90% [middle of 4 runs] | 82.7% [middle of 4 runs] | 77.9% [middle of 4 runs] | – | – | – | – | – | – | – | – |
| Cn1ncnc1[C@H]1c2n[nH]c(=O)c3cc(F)cc(c23)N[C@@H]1c1ccc(F)cc1 | 97.2% [middle of 4 runs] | 101% [middle of 4 runs] | 103% [middle of 4 runs] | 115% and 101% (2×) and 97.3% | 101% (2×) and 96.9% and 92.6% | 94.8% [middle of 4 runs] | > 0.1 µM | – | – | – | – | – | – | – | – | – | – | – | – |
